Data on 10 compounds can be found in ChEMBL document CHEMBL1201862, “PubChem BioAssay data set” (2004).

Test systems include UACC-257; K562; A498; MDA-N; PC-3; EKVX; SK-MEL-5; Malme-3M; SF-539; DU-145; OVCAR-3; BT-549; LOX IMVI; ACHN; HT-29; A549; SF-295; OVCAR-4; MCF7; SN12C.
Holding throughout (experiment): inhibition of tumour cell growth, NCI panel, 48 h

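Each compound was tested at five concentrations against cells in 96-well plates for 48 hours. The concentration for 50% growth inhibition is given as GI50.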 The source made the active and inactive calls. No stated cut-off is given here; in the data, active = GI50 up to about 1.1 µM and inactive = higher.

For the compound `N=c1sc2ccccc2n1CC[S-].c1ccc2c(c1)sc1[n+]2CCS1`, the GI50 is 17.8 µM (inactive) in the assay on UACC-257; 16.7 µM (inactive) in the assay with K562; 14.7 µM (inactive) in the assay on A498; 37.1 µM (inactive) in the assay with MDA-N; 29.8 µM (inactive) with PC-3; 22 µM (inactive) in the assay on EKVX. Besides, the GI50 is 14.8 µM (inactive) with SK-MEL-5; 17.7 µM (inactive) with Malme-3M; 6.58 µM (inactive) in the assay on SF-539; 21.2 µM (inactive) with DU-145; 19.3 µM (inactive) in the assay on OVCAR-3; 23.1 µM (inactive) in the assay with BT-549. Besides, the GI50 with LOX IMVI is 16.9 µM (inactive); with ACHN, 16.3 µM (inactive); with HT-29, 19 µM (inactive); in the assay on A549 it was 16.9 µM (inactive); in the assay with SF-295, 17.4 µM (inactive); in the assay on OVCAR-4, 16.4 µM (inactive). Further, the values for the GI50 with MCF7 and with SN12C were 12.9 µM (inactive) and 21.1 µM (inactive), respectively.
On to `O=C1C=C(Nc2cccnc2)c2ccccc2C1=O`, for which the GI50 with UACC-257 was 1.9 µM (inactive); in the assay on K562 it was 1.76 µM (inactive); with A498, 9.08 µM (inactive); in the assay on MDA-N, 0.372 µM (active); with PC-3, 8.85 µM (inactive); with EKVX, 12.2 µM (inactive). Further, the GI50 was 1.26 µM (inactive) in the assay with SK-MEL-5; 2.34 µM (inactive) in the assay on Malme-3M; 2.97 µM (inactive) with SF-539; 4.15 µM (inactive) with DU-145; 2.72 µM (inactive) with OVCAR-3; 1.44 µM (inactive) in the assay with BT-549. For the same compound, the GI50 in the assay on LOX IMVI is 2.61 µM (inactive); in the assay with ACHN, 7.73 µM (inactive); in the assay with HT-29, 17 µM (inactive); in the assay with A549, 3.65 µM (inactive); in the assay with SF-295, 2.92 µM (inactive); with OVCAR-4, 8.87 µM (inactive). Besides, the values for the GI50 in the assay on MCF7 and in the assay on SN12C were 2.64 µM (inactive) and 8.02 µM (inactive), respectively.
For the compound `NC(=S)C1=C(N)Oc2c(c(=O)oc3ccccc23)C1c1ccc(Br)cc1` (stereo not given), the GI50 is > 100 µM (inactive) in the assay with UACC-257; 42.1 µM (inactive) in the assay on K562; 63.2 µM (inactive) with A498; > 100 µM (inactive) in the assay with MDA-N; > 100 µM (inactive) in the assay with PC-3; > 100 µM (inactive) with EKVX. In addition, the GI50 with SK-MEL-5, in the assay on Malme-3M, with SF-539, in the assay on DU-145, with OVCAR-3 and in the assay with BT-549 was > 100 µM (inactive) each time. In addition, the GI50 with LOX IMVI, with ACHN, in the assay on HT-29, in the assay on A549, in the assay with SF-295 and with OVCAR-4 was > 100 µM (inactive) throughout. Further, the GI50 in the assay with MCF7 and in the assay on SN12C was > 100 µM (inactive) each time.
Turning to `COc1cc(C(c2c(O)c3ccccc3oc2=O)c2c(O)c3ccccc3oc2=O)cc(Br)c1O`, the GI50 is 17.3 µM (inactive) in the assay on UACC-257; 30.3 µM (inactive) with K562; 15.9 µM (inactive) in the assay on A498; 18.4 µM (inactive) with MDA-N; 19.1 µM (inactive) in the assay with PC-3; 18.8 µM (inactive) with EKVX. The GI50 in the assay with SK-MEL-5 is 16.3 µM (inactive); with Malme-3M, 16.8 µM (inactive); with SF-539, 15.6 µM (inactive); with DU-145, 17.4 µM (inactive); in the assay on OVCAR-3, 15.9 µM (inactive); in the assay on BT-549 it was 17 µM (inactive). Also, the GI50 with LOX IMVI was 16 µM (inactive); with ACHN, 17.4 µM (inactive); in the assay on HT-29, 20 µM (inactive); with A549, 18.4 µM (inactive); in the assay on SF-295, 21.1 µM (inactive); in the assay on OVCAR-4, 15.4 µM (inactive). Besides, the GI50 with MCF7 was 16.2 µM (inactive); with SN12C, 15.8 µM (inactive).
Consider `C/C(=N/NC(=S)N1CC2CCC(CC2)C1)c1cnccn1`, for which the GI50 is < 0.01 µM (active) in the assay with UACC-257; < 0.01 µM (active) with K562; 1.73 µM (inactive) with A498; 0.37 µM (active) in the assay with MDA-N; < 0.01 µM (active) in the assay with PC-3; 0.0101 µM (active) in the assay with EKVX. Besides, the GI50 in the assay with SK-MEL-5 is < 0.0175 µM (active); with Malme-3M, < 0.01 µM (active); in the assay on SF-539 it was 0.109 µM (active); in the assay on DU-145 it was 0.376 µM (active); in the assay with OVCAR-3 it was < 0.01 µM (active); with BT-549 it was 0.993 µM (active). Moreover, the GI50 in the assay on LOX IMVI was < 0.01 µM (active); in the assay on ACHN it was < 0.012 µM (active); in the assay on HT-29 it was < 0.01 µM (active); in the assay with A549 it was < 0.01 µM (active); in the assay on SF-295, 0.0551 µM (active); with OVCAR-4, 0.0264 µM (active). The GI50 in the assay on MCF7 was < 0.01 µM (active); in the assay with SN12C it was < 0.0178 µM (active).
As to `O=c1[nH]nc(-c2ccccc2)n1/N=C/c1ccccc1O`, the GI50 with UACC-257 was > 100 µM (inactive); with K562, > 100 µM (inactive); in the assay with A498, 34.1 µM (inactive); in the assay with MDA-N, > 100 µM (inactive); in the assay with PC-3 it was 89.9 µM (inactive); in the assay with EKVX, 67.9 µM (inactive). Also, the GI50 in the assay on SK-MEL-5 is 47.8 µM (inactive); in the assay with Malme-3M, 88.1 µM (inactive); in the assay with SF-539, 78.2 µM (inactive); with DU-145, > 100 µM (inactive); in the assay on OVCAR-3, 59.4 µM (inactive); with BT-549 it was > 100 µM (inactive). In addition, the GI50 in the assay on LOX IMVI is > 100 µM (inactive); in the assay on ACHN, 63.2 µM (inactive); in the assay with HT-29 it was > 100 µM (inactive); in the assay on A549 it was > 100 µM (inactive); in the assay with SF-295 it was 71 µM (inactive); in the assay with OVCAR-4, 28.6 µM (inactive). Also, the GI50 with MCF7 and with SN12C was > 100 µM (inactive) throughout.
Turning to `COc1cc2c(cc1OC)CCc1cc(OC)c(OC)cc1CC2`, the GI50 in the assay on UACC-257, in the assay with K562, with A498, in the assay with MDA-N, in the assay on PC-3 and in the assay with EKVX was > 100 µM (inactive) in each case. The GI50 with SK-MEL-5, in the assay with Malme-3M, in the assay with SF-539, in the assay with DU-145, in the assay on OVCAR-3 and in the assay on BT-549 was > 100 µM (inactive) each time. Besides, the GI50 in the assay with LOX IMVI, with ACHN, in the assay with HT-29, with A549, in the assay on SF-295 and in the assay on OVCAR-4 was > 100 µM (inactive) each time. Further, the GI50 with MCF7 and in the assay on SN12C was > 100 µM (inactive) throughout.
As for `CC(C)=CCC[C@@H](C)c1c2nc3ccccc3[nH]c-2c(C)c(=O)c1O`, the GI50 was 2.37 µM (inactive) with UACC-257; 1.41 µM (inactive) in the assay with K562; 2.12 µM (inactive) in the assay with A498; 2.09 µM (inactive) in the assay with MDA-N; 3.32 µM (inactive) in the assay with PC-3; 2.7 µM (inactive) in the assay with EKVX. Besides, the GI50 in the assay on SK-MEL-5 was 1.63 µM (inactive); in the assay with Malme-3M it was 1.58 µM (inactive); in the assay with SF-539, 2.08 µM (inactive); in the assay on DU-145 it was 1.61 µM (inactive); with OVCAR-3, 0.363 µM (active); in the assay with BT-549, 2.63 µM (inactive). For the same compound, the GI50 was 1.75 µM (inactive) in the assay with LOX IMVI; 0.568 µM (active) in the assay on ACHN; 5.32 µM (inactive) with HT-29; 2.37 µM (inactive) with A549; 0.946 µM (active) with SF-295; 2.88 µM (inactive) in the assay on OVCAR-4. In addition, the results for the GI50 in the assay on MCF7 and in the assay on SN12C were 2.18 µM (inactive) and 1.24 µM (inactive), respectively.
As to `COc1cc2c(cc1O)NC(=O)[C@@H]1CCCN1C2=O`, the GI50 in the assay with UACC-257, in the assay with K562, in the assay on A498, in the assay with MDA-N, in the assay on PC-3 and in the assay with EKVX was > 100 µM (inactive) in each case. The GI50 in the assay with SK-MEL-5, in the assay with Malme-3M, with SF-539, with DU-145, with OVCAR-3 and in the assay on BT-549 was > 100 µM (inactive) throughout. Moreover, the GI50 with LOX IMVI, in the assay with ACHN, in the assay with HT-29, with A549, in the assay with SF-295 and with OVCAR-4 was > 100 µM (inactive) each time. Also, the GI50 in the assay on MCF7 and with SN12C was > 100 µM (inactive) throughout.
As for `COCC(C#N)NC1CC(OC2CC(O)(C(=O)CO)Cc3c(O)c4c(c(O)c32)C(=O)c2c(OC)cccc2C4=O)OC(C)C1O` (stereo not given), the GI50 in the assay on UACC-257 was 0.091 µM (active); with K562, 0.0415 µM (active); in the assay on A498, 0.0383 µM (active); in the assay with MDA-N, 0.0975 µM (active); with PC-3, 0.0942 µM (active); in the assay with EKVX, 0.5 µM (active). Besides, the GI50 with SK-MEL-5 was 0.0303 µM (active); with Malme-3M, 0.0344 µM (active); with SF-539 it was 0.0415 µM (active); with DU-145, 0.0412 µM (active); in the assay on OVCAR-3, 0.153 µM (active); with BT-549, 0.138 µM (active). In addition, the GI50 was 0.0292 µM (active) with LOX IMVI; 0.0581 µM (active) in the assay with ACHN; 0.151 µM (active) with HT-29; 0.0521 µM (active) in the assay with A549; 0.0966 µM (active) in the assay on SF-295; 0.282 µM (active) with OVCAR-4. The GI50 in the assay on MCF7 was < 0.01 µM (active); in the assay with SN12C, 0.0422 µM (active).
